Activity calls are given as the source filed them. No rule for the calls is given here.
Target: Ubiquitin carboxyl-terminal hydrolase 10 (Homo sapiens) (UniProt Q14694)
Assay: ubiquitin-specific protease 10 DUB inhibitors, concentration-effect, biochemical, verification of primary screen actives (AID 1645863);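 also: potency values describe inhibition of USP10 cleavage of a fluorogenic ubiquitin substrate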
Conditions: USP10 deubiquitinase enzymatic assay

Sequence of Ubiquitin carboxyl-terminal hydrolase 10 (Homo sapiens) (Q14694 whole entry, looked up): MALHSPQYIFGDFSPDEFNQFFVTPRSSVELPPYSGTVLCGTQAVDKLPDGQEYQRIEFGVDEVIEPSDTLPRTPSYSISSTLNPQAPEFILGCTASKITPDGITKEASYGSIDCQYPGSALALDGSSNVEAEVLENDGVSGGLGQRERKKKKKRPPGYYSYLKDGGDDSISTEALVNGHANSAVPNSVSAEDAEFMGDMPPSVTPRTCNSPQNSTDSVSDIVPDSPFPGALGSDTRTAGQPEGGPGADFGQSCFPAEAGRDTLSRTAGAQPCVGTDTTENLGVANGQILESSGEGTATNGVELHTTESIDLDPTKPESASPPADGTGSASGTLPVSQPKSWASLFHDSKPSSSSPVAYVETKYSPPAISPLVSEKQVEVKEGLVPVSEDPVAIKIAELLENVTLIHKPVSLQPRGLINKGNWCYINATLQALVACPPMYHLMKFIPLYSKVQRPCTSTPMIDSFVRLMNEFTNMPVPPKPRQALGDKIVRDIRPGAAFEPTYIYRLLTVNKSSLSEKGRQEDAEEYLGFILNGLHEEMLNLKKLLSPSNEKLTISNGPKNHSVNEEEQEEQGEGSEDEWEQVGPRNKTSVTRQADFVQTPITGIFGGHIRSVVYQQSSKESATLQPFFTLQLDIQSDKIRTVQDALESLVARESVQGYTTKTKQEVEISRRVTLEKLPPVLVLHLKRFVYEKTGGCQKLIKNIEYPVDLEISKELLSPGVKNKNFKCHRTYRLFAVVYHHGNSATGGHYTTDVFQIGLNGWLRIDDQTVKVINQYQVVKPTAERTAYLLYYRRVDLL

Structure (SMILES) | IC50
O=C(Nc1cccnc1)C1c2ccccc2C(=O)N(c2ccccc2)C12CCCCC2 (stereo unspecified) | > 40 µM (inactive)
CCc1[nH]c(=O)cc2cc(OC)c(OC)cc12 | 2.97 µM
Cc1ccc2[nH]c3c(=O)n(Cc4ccc(N(C)C)cc4)cnc3c2c1 | 19.5 µM
COc1ccccc1NC(=O)c1nc(-c2cn(-c3cccc(F)c3)nn2)no1 | 21.1 µM
Cc1nc2c(-c3ccc(Cl)cc3)c[nH]n2c(=O)c1Cc1ccccc1 | > 12.6 µM (inactive)
COc1ccc(NC(=O)Cn2c(=O)n(CCCC(=O)NCCc3ccc(OC)c(OC)c3)c(=O)c3ccccc32)cc1Cl | > 40 µM (inactive)
COc1ccc(-c2ccc3cc(C(=O)O)ccc3c2)cc1C12CC3CC(CC(C3)C1)C2 | 5.77 µM
O=C(Nc1cccc(-c2nc3ncccc3o2)c1)c1ccc([N+](=O)[O-])cc1 | > 40 µM (inactive)
COc1cc(O)cc2c1C(=O)OC(C)CCCCCCC2 (stereo unspecified) | 29.5 µM
CCc1ccc(NC(=O)c2cc(C(F)(F)F)n(C)n2)cc1 | > 40 µM (inactive)
O=C(CSc1nc2c(cnn2-c2ccccc2)c(=O)[nH]1)Nc1ccc(Cl)cc1F | > 40 µM (inactive)
CS(=O)(=O)c1cccc(-c2nnc(NC(=O)c3ccc(Cc4ccccc4)cc3)o2)c1 | > 40 µM (inactive)
Cc1cc(N2CCN(c3ncccn3)CC2)nc2ccc(NC(=O)c3ccncc3)cc12 | > 40 µM (inactive)
CCCCCCCCCC(CCCCCCCCCC(=O)O)O[C@H]1O[C@@H](COC(C)=O)[C@H](O)[C@@H](OC(=O)CC(=O)O)[C@H]1O (stereo partly specified) | 30.6 µM
CCOC(=O)N1CCC(NC(=O)c2cc(C(=O)Nc3ccc(S(=O)(=O)N4CCCCC4)cc3)ccc2CO)CC1 | > 40 µM (inactive)
COc1ccccc1Nc1ncc(C(=O)NCCc2ccc(Cl)cc2)c2ccccc12 | > 40 µM (inactive)
COc1cc(Cl)c(NC(=O)C2Cc3ccccc3N2C(=O)c2ccccc2)c(OC)c1 (stereo unspecified) | 26.9 µM
FC(F)(F)c1cccc(Nc2nc(-c3ccccn3)nc3ccccc23)c1 | > 40 µM (inactive)
N#Cc1ccccc1NC(=O)c1cc2c(s1)-c1ccccc1S(=O)(=O)C2 | 34.6 µM
Cc1ccccc1NC(=O)N1CCC(CC(=O)N2CCCCC2)CC1 | > 40 µM (inactive)
Cc1ccc(NC(=O)Nc2ccc(C)n(CC(=O)Nc3cccc(C)c3)c2=O)cc1 | > 40 µM (inactive)
O=C(CSc1nnc2c3ccccc3nc(-c3ccco3)n12)N1CCCc2ccccc21 | 3.82 µM
COc1ccc(/C=C/C(=O)Nc2ccc3nc(N4CCN(c5ncccn5)CC4)cc(C)c3c2)cc1 | > 40 µM (inactive)

Structure (SMILES) | IC50
O=C(Nc1ccc(Cn2cnc(-c3nc(-c4ccccc4)no3)c2)cc1)c1ccccc1F | > 40 µM (inactive)
CCOc1ccc2cc3c(nc2c1)OC(=O)N(Cc1ccc(OC)cc1)C3 | 5.74 µM
COc1ccc(-c2nc(Cn3nnc(C(=O)Nc4ccc(C)c(C)c4)c3N)c(C)o2)cc1 | 29.1 µM
O=C(c1cnccn1)N1CC[C@@H]2CNS(=O)(=O)[C@@H]2CC1 | > 40 µM (inactive)
Cc1ccc(NC(=O)Nc2ccc(C)n(CC(=O)Nc3cc(C)ccc3C)c2=O)cc1 | > 40 µM (inactive)
Cc1nc(-c2ccccc2)sc1-c1nc(-c2ccccc2)ncc1S(=O)(=O)c1ccccc1 | > 40 µM (inactive)
N#Cc1ccc(NC(=O)Nc2cccn(Cc3ccccc3F)c2=O)cc1 | > 40 µM (inactive)
N=C1/C(=C/c2cn(Cc3ccccc3)c3ccccc23)C(=O)N=C2SC(C(F)(F)F)=NN12 | > 40 µM (inactive)
O=c1[nH]c(C2CCN(S(=O)(=O)c3ccc(S(=O)(=O)NC4CCCCC4)cc3)CC2)nc2c1nnn2Cc1c(F)cccc1Cl | 16.4 µM
NC(=O)C[C@H](NC(=O)[C@H](Cc1ccccc1)n1c(=O)[nH]c2ccccc2c1=O)C(=O)N[C@@H](Cc1ccccc1)C(=O)O | > 40 µM (inactive)
Cc1ccc(NC(=O)Cc2nnc3cc(-c4nc(C)no4)ccn23)cc1 | 14.3 µM
COc1cc2c(=O)n(CC3CCCO3)c(=O)n(CC(=O)c3ccc4c(c3)OCO4)c2cc1OC (stereo unspecified) | 37.4 µM
CCc1cccc(C)c1NC(=O)Cn1nc2ccc(C(=O)NCc3ccccc3)cn2c1=O | 29.3 µM
COc1ccc(-c2cc(-c3ccc(F)cc3)[nH]c(=O)c2C#N)cc1 | 18.3 µM
O=C(NCCc1nc2ccccc2n1CCCOc1ccccc1Cl)C1CCCCC1 | 32.8 µM
O=c1[nH]c(C2CCN(S(=O)(=O)c3ccc(S(=O)(=O)N4CCOCC4)cc3)CC2)nc2c1nnn2Cc1ccc(F)cc1 | > 40 µM (inactive)
Cc1cccc2nc(CSc3nc4ccc([N+](=O)[O-])cc4[nH]3)cn12 | 19.8 µM
O=C(NCc1ccc2c(c1)OCO2)c1[nH]nc2c1COc1ccccc1-2 | 15.2 µM
N#Cc1cccc(NC(=O)Nc2cccn(Cc3ccc(F)cc3)c2=O)c1 | > 40 µM (inactive)
Cn1cc(C(=O)NCC2COc3ccccc3O2)c(=O)c2cc(S(=O)(=O)N3CCCCC3)ccc21 (stereo unspecified) | > 40 µM (inactive)
Cc1nc(N2CCN(c3ccc(Cl)cc3)CC2)c2oc3ccccc3c2n1 | 17.7 µM
O=C(Cn1cnc(-c2noc(-c3ccc(F)cc3)n2)c1)Nc1ccccc1F | > 40 µM (inactive)
O=C(NCc1ccc(Cl)cc1)c1cc2c(s1)-c1ccccc1OC2 | > 40 µM (inactive)

Structure (SMILES) | IC50
O=C(CSc1nnc2ccc3ccccc3n12)c1ccc(Cl)cc1 | > 40 µM (inactive)
Cc1nnc(NC(=O)C2CCN(c3ccc(S(N)(=O)=O)cc3[N+](=O)[O-])CC2)o1 | 12.6 µM
Cc1c(C(=O)NCc2cccc(Br)c2)oc2c1-c1[nH]ncc1CC2 | > 40 µM (inactive)
O=C(CCCCn1c(=O)c2ccccc2n(CC(=O)Nc2ccc3c(c2)OCCO3)c1=O)NCc1ccco1 | 25.2 µM
NC(=O)c1ccccc1NC(=O)COc1ccc2c(c1)oc(=O)c1ccccc12 | 5.75 µM
COCCCN1CCS(=O)(=O)c2c(Cl)c(F)nc(Oc3ccccc3F)c21 | > 40 µM (inactive)
CN1CCC(N2CCN(C(=O)C3CCCN(c4cnc5nccnc5c4)C3)CC2)CC1 (stereo unspecified) | > 40 µM (inactive)
O=S1(=O)CCN(CC2CCCO2)c2c(Oc3ccccc3)nc(F)c(Cl)c21 (stereo unspecified) | > 40 µM (inactive)
Cc1nn(-c2ccccc2)c2c1nc(CCC(=O)NC1CCCCC1)c(=O)n2C | > 40 µM (inactive)
O=C(NCc1ccco1)c1ccc(Cn2c(=O)c3sccc3n(Cc3cc(=O)n4ccccc4n3)c2=O)cc1 | > 40 µM (inactive)
Cc1ccc(CNC(=O)c2cccc(N3C(=O)N4CCc5c([nH]c6ccccc56)[C@@]4(C)C3=O)c2)cc1 | > 40 µM (inactive)
Cc1ccc(-n2cc(-c3noc(C(=O)Nc4ccc(F)cc4C)n3)nn2)cc1 | 10.1 µM
Cn1cc(NC(=O)Nc2cccc(C(F)(F)F)c2)c2ccccc2c1=O | 28.5 µM
COc1ccc(OCCn2c(C3CC(=O)N(c4cccc(C)c4)C3)nc3ccccc32)cc1 (stereo unspecified) | 15.2 µM
COc1ccc(C(=O)COC(=O)c2cccc(NC(=O)c3ccc(Cl)cc3)c2)cc1 | > 40 µM (inactive)
Cc1cc(=O)[nH]c(NC2CCN(S(=O)(=O)c3ccccc3C(F)(F)F)CC2)n1 | > 40 µM (inactive)
COC(=O)c1ccc2c(=O)n(CCCCCC(=O)NCCc3ccc(OC)c(OC)c3)c(=O)[nH]c2c1 | > 40 µM (inactive)
Cc1ccc(C2c3[nH]c4ccccc4c3C[C@H]3C(=O)N(c4ccc(C(=O)NCCc5ccccc5)cc4)C(=O)N23)cc1 (stereo partly specified) | > 40 µM (inactive)
COc1ccc(C(=O)C(C)OC(=O)c2cccc(S(=O)(=O)Nc3cc([N+](=O)[O-])ccc3OC)c2)c(OC)c1 (stereo unspecified) | > 40 µM (inactive)
COc1ccc(-c2noc(C3(c4ccc(F)cc4)CCOCC3)n2)cc1 | > 40 µM (inactive)
O=C(Nc1cc(S(=O)(=O)Nc2ccc(Cl)cc2)ccc1O)c1cc2c(s1)CCC2 | 10.3 µM
Cc1ccc(Cn2cc(C(=O)Nc3ccccc3C(N)=O)ccc2=O)cc1 | 2.81 µM
COc1ccccc1N(CC(=O)N1c2ccccc2CC1C)S(=O)(=O)c1ccc(F)cc1 (stereo unspecified) | > 40 µM (inactive)

Structure (SMILES) | IC50
O=C(Cn1c(=O)[nH]c2c(-c3ccc(F)cc3)c[nH]c2c1=O)NCc1ccc(F)cc1 | > 40 µM (inactive)
O=C(c1cccnc1)N1CCN(c2cc(-c3ccccc3)[nH]n2)CC1 | > 40 µM (inactive)
CC(=O)c1cccc(NC(=O)COC(=O)c2sc3cc(F)ccc3c2Cl)c1 | > 40 µM (inactive)
COc1cccc(C(=O)Nc2ccc(SC(C)C(=O)Nc3ccc(C(N)=O)cc3)cc2)c1 (stereo unspecified) | 24.9 µM
COc1ccc([N+](=O)[O-])cc1NC(=O)COC(=O)c1ccc2[nH]c3c(c2c1)CCCC3 | 18.3 µM
O=c1c2ccccc2nc(/C=C/c2ccco2)n1Cc1ccccc1 | > 40 µM (inactive)
O=C(Cn1c(=O)n(Cc2ccc3c(c2)OCO3)c(=O)c2cccnc21)Nc1ccc(F)cc1 | > 40 µM (inactive)
CCc1nc(SCC(=O)Nc2ccc(Cl)c(Cl)c2)c2oc3ccccc3c2n1 | 39.4 µM
O=C(O)c1nccnc1C(=O)N1CCc2ccccc2C1 | > 40 µM (inactive)
COC(=O)c1ccc(N2CCN(C(C)=O)CC2)c(NC(=O)COc2ccc([N+](=O)[O-])cc2)c1 | 25.1 µM
CCC(=O)Nc1nc2cc(NC(=O)Nc3cccc(C)c3)ccc2s1 | 18.8 µM
O=C(Nc1ccc(Cl)cc1F)c1cc(-c2ccccn2)n[nH]1 | > 40 µM (inactive)
CCCCNC(=O)C1Sc2nnc(-c3ccccc3)n2NC1c1ccccc1 (stereo unspecified) | > 40 µM (inactive)
Cn1c(COc2cccc3cccnc23)nnc1SCC(=O)c1ccc(Cl)cc1Cl | > 40 µM (inactive)
COc1cc(Cl)c(C)cc1NC(=O)Cn1c(=O)n(CC(=O)NCc2ccco2)c(=O)c2ccccc21 | 16.3 µM
Cc1nn(-c2ccccc2)c2c1N=C1C(Cl)=CC(Cl)=CN1C21C(=O)Nc2ccccc21 (stereo unspecified) | > 40 µM (inactive)
CC(C)Cc1nc2sc3c(SCC(=O)N4CCC(C)CC4)ncnc3c2c2c1COC(C)(C)C2 | > 40 µM (inactive)
O=C(CSc1nc2ccccc2[nH]1)Nc1cccc2c1OCCO2 | > 40 µM (inactive)
CC(NC(=O)c1ccccc1)c1nc2ccccc2n1CC(=O)Nc1ccc2c(c1)OCO2 (stereo unspecified) | 11.5 µM
O=C(CNC(=O)OCc1ccccc1)Nc1ccc(Br)cc1C(=O)c1ccccc1Cl | > 40 µM (inactive)
CCOC(=O)c1ccc(NC(=O)Cn2c(=O)n(-c3ccc(CC(=O)NCc4ccco4)cc3)c(=O)c3ccccc32)cc1 | > 40 µM (inactive)
CCOc1ccccc1NC(=O)Cn1c(=O)n(CCC(=O)NCCc2ccc(OC)c(OC)c2)c(=O)c2ccccc21 | > 40 µM (inactive)
